Earlier results as cited in US6761879B1, “Titanium derived compounds, preparation and use thereof” (Sanofi-Synthelabo, priority 1999, dated 2004).

How the values were obtained:
[1] = known from prior art
[2] = in particular in aqueous solution

[F][Ti]([F])([F])[F] [titanium tetrafluoride]
formation of an amorphous protective layer (glaze) at the surface of the enamel of the tooth [1]: forming an amorphous protective layer
stability [2]: relatively unstable
pH in aqueous solution: about 1.5
